System: HIV-1
Test: microbe, parasite or virus in culture
Conditions: Human immunodeficiency virus 1, CCRF-CEM, 168 h
Description: Assays were performed in 96-well tissue culture plates. CEM cells, a CD4^+ cell line, were grown in RPMI-1640 medium (Gibco) supplemented with a 10% fetal calf serum and were then treated with polybrene (2 μg/ml). An 80 μl volume of medium containing 1×10^4 cells was dispensed into each well of the tissue culture plate. To each well was added a 100 μl volume of test compound dissolved in tissue culture medium (or medium without test compound as a control) to achieve the desired final concentration and the cells were incubated at 37° C. for 1 hour. […] Likewise, the intrinsic toxicity of the test compound was determined by adding medium without virus to several wells containing test compound. […]
Following the addition of virus, cells were incubated at 37° C. in a humidified, 5% CO2 atmosphere for 7 days. […] The absorbance at 590 nm was determined for each sample using a Molecular Devices microplate reader. Absorbance values for each set of wells is compared to assess viral control infection, uninfected control cell response as well as test compound by cytotoxicity and antiviral efficacy.
Compound CNC(=O)C[C@H](NC(=O)c1ccc2ccccc2n1)C(=O)N[C@@H](Cc1ccccc1)[C@H](O)CN(CCC(C)C)S(=O)(=O)c1ccccc1 [Entry 7] has an EC50 of 25 nM.

System: not given
Test: not given
Conditions: not given
With COc1ccc(S(=O)(=O)N(CC(C)C)C[C@@H](O)[C@H](Cc2ccccc2)NC(=O)O[C@H]2CCS(=O)(=O)C2)cc1 the melting point was 69 °C.

Target: T1, HIV protease (Human immunodeficiency virus type 1 group M subtype B, UniProt P04585)
T1 construct: HIV protease is diluted in the assay buffer to a final enzyme concentration of 12.3 nanomolar, based on a molecular weight of 10,780
Test: HIV protease enzyme assay (fluorescence, substrate 2-Ile-Nle-Phe(p-NO2)-Gln-ArgNH2)
Type: biochemical
Conditions: IC50 (nM), Table 21; HIV protease enzyme assay
Description: The enzyme method is described below. […] The positive control is MVT-101 (Miller, M. et al, Science, 246, 1149 (1989)] The assay conditions are as follows:
Assay buffer: 20 mM sodium phosphate, pH 6.4 20% glycerol 1 mM EDTA 1 mM DTT 0.1% CHAPS
The above described substrate is dissolved in DMSO, then diluted 10 fold in assay buffer. Final substrate concentration in the assay is 80 μM.
The final concentration of DMSO is 14% and the final concentration of glycerol is 18%. The test compound is dissolved in DMSO and diluted in DMSO to 10× the test concentration; 10 μl of the enzyme preparation is added, the materials mixed and then the mixture is incubated at ambient temperature for 15 minutes. The enzyme reaction is initiated by the addition of 40 μl of substrate. The increase in fluorescence is monitored at 4 time points (0, 8, 16 and 24 minutes) at ambient temperature. Each assay is carried out in duplicate wells.
In the case of COc1ccc(S(=O)(=O)N(CC(C)C)C[C@@H](O)[C@H](Cc2ccccc2)NC(=O)c2c(C)cccc2C)cc1 [Example 32], the IC50 is reported as 5 nM.
CNC(=O)C[C@H](NC(=O)c1ccc2ccccc2n1)C(=O)N[C@@H](Cc1ccccc1)[C@H](O)CN(CCC(C)C)S(=O)(=O)c1ccccc1 [Entry 7] gave an IC50 of 3 nM.

Same assay, conditions: Table 18A; HIV protease enzyme assay; read-out: IC50
CC(C)CCN(C[C@@H](O)[C@H](Cc1ccccc1)NC(=O)OCc1ccccc1)S(=O)(=O)c1cccs1 [Entry 10] showed an IC50 of 100 nM.

Same assay, conditions: Table 21; HIV protease enzyme assay; read-out: IC50
With CC(C)CN(C[C@@H](O)[C@H](Cc1ccccc1)NC(=O)OCc1cccnc1)S(=O)(=O)c1ccccc1 [Example 16] the IC50 was 9 nM.
For COc1ccc(S(=O)(=O)N(CC(C)C)C[C@@H](O)[C@H](Cc2ccccc2)NC(=O)OCc2ccncc2)cc1 [Example 22], the IC50 was 15 nM.
In the case of COc1ccc(S(=O)(=O)N(CC(C)C)C[C@@H](O)[C@H](Cc2ccccc2)NC(=O)OCc2ccc[n+]([O-])c2)cc1 [Example 25], the IC50 is reported as 60 nM.
For COc1ccc(S(=O)(=O)N(CC(C)C)C[C@@H](O)[C@H](Cc2ccccc2)NC(=O)OC(C)(C)C)cc1 [Example 27], the IC50 was 5 nM.
Cc1c(O)cccc1C(=O)N[C@@H](Cc1ccccc1)[C@H](O)CN(CC(C)C)S(=O)(=O)c1cccc(N)c1 [Example 65] gave an IC50 of 4 nM.
COc1ccc(S(=O)(=O)N(CC(C)C)C[C@@H](O)[C@H](Cc2ccccc2)NC(=O)COc2ccccc2C)cc1 [Example 75] gave an IC50 of 8 nM.
Compound COc1ccc(S(=O)(=O)N(CC(C)C)C[C@@H](O)[C@H](Cc2ccccc2)NC(=O)OCc2cccnc2)cc1 [Example 17] has an IC50 of 4 nM.
COc1ccc(S(=O)(=O)N(CC(C)C)C[C@@H](O)[C@H](Cc2ccccc2)NC(=O)COc2c(C)cccc2C)cc1 [Example 74] showed an IC50 of 3 nM.
CC(C)CN(C[C@@H](O)[C@H](Cc1ccccc1)NC(=O)OCc1cccnc1)S(=O)(=O)c1ccc2c(c1)OCO2 [Example 69] showed an IC50 of 4 nM.
For CC(C)CN(C[C@@H](O)[C@H](Cc1ccccc1)NC(=O)OCc1cccnc1)S(=O)(=O)c1ccc2c(c1)CCO2 [Example 66], the IC50 was 4 nM.
CC(C)CN(C[C@@H](O)[C@H](Cc1ccccc1)NC(=O)COc1ccccc1)S(=O)(=O)c1ccc2ncsc2c1 [Example 78] showed an IC50 of 3 nM.

System: CEM cells
Test: Intrinsic toxicity of test compound in uninfected CEM cells (MTT)
Type: cell-based
Conditions: Table 21
Source text: Methods, 20, 309-321 (1988).
With CC(C)CN(C[C@@H](O)[C@H](Cc1ccccc1)NC(=O)OCc1cccnc1)S(=O)(=O)c1ccccc1 [Example 16] the “TD50 (nM)” value was 62,000 nM.
In the case of COc1ccc(S(=O)(=O)N(CC(C)C)C[C@@H](O)[C@H](Cc2ccccc2)NC(=O)c2ccccc2)cc1 [Example 28], the “TD50 (nM)” value is reported as 213,000 nM.
With COc1ccc(S(=O)(=O)N(CC(C)C)C[C@@H](O)[C@H](Cc2ccccc2)NC(=O)OCc2ccncc2)cc1 [Example 22] the “TD50 (nM)” value was 31,000 nM.
With COc1ccc(S(=O)(=O)N(CC(C)C)C[C@@H](O)[C@H](Cc2ccccc2)NC(=O)c2ccccc2Cl)cc1 [Example 30] the “TD50 (nM)” value was 154,000 nM.
For COc1ccc(S(=O)(=O)N(CC(C)C)C[C@@H](O)[C@H](Cc2ccccc2)NC(=O)c2c(C)cccc2C)cc1 [Example 32], the “TD50 (nM)” value was 17,000 nM.
In the case of COc1ccc(S(=O)(=O)N(CC(C)C)C[C@@H](O)[C@H](Cc2ccccc2)NC(=O)OCc2ccc[n+]([O-])c2)cc1 [Example 25], the “TD50 (nM)” value is reported as 167,000 nM.
In the case of COc1ccc(S(=O)(=O)N(CC(C)C)C[C@@H](O)[C@H](Cc2ccccc2)NC(=O)OC(C)(C)C)cc1 [Example 27], the “TD50 (nM)” value is reported as 300,000 nM.
With COc1ccc(S(=O)(=O)N(CC(C)C)C[C@@H](O)[C@H](Cc2ccccc2)NC(=O)c2ccccc2C)cc1 [Example 29] the “TD50 (nM)” value was 196,000 nM.
With COc1ccc(S(=O)(=O)N(CC(C)C)C[C@@H](O)[C@H](Cc2ccccc2)NC(=O)OCc2cccnc2)cc1 [Example 17] the “TD50 (nM)” value was 59,000 nM.

— patent USRE43802E1, “α- and β-amino acid hydroxyethylamino sulfonamides useful as retroviral protease inhibitors” (G.D. Searle LLC, priority 1992, dated 2012)
